The values that follow come from patent US12559492B2, “BRAF degraders” (C4 Therapeutics, Inc., priority 2020, dated 2026).

For the test, the target named is BRAF^V600E protein (Homo sapiens, UniProt P15056, V600E). Put plainly: HiBiT cellular BRAF V600E degradation assay. The note with it: 24 h incubation; for DC50: A375.10 cells (HiBiT tag knocked in at N-terminal of BRAF V600E), concentration at which 50% of total cellular BRAF V600E is degraded; for Emax: A375.10 cells, Emax = amount of residual protein remaining in the cell after compound treatment, read-out: HiBit 24 h Emax. It is filed as cell-based.
Sequence of BRAF^V600E protein (P15056 whole entry V600E): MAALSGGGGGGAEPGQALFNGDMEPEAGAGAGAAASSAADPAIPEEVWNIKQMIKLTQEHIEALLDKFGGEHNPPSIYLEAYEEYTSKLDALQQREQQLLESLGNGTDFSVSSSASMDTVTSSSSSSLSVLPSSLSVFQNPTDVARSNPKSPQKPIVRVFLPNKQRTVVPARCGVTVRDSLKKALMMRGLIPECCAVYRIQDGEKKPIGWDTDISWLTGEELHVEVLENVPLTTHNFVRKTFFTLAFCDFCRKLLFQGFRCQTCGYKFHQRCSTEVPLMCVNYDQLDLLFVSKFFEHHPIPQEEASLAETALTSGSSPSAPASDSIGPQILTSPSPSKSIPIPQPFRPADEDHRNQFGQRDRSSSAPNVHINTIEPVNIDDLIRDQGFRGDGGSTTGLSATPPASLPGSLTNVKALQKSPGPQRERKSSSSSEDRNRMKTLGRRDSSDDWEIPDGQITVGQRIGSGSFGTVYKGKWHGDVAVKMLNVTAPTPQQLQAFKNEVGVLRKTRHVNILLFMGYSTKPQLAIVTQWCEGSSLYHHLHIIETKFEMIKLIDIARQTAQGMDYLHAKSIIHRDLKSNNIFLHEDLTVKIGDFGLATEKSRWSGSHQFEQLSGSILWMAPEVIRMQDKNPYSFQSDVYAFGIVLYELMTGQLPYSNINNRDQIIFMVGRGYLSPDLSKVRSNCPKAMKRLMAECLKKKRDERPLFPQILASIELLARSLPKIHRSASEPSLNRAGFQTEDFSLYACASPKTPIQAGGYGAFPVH

Structures are written as SMILES.

`CCN(C)S(=O)(=O)Nc1ccc(F)c(C(=O)c2c[nH]c3ncc(-c4ccc(CN5CCN(C(=O)CCCN6CCC(c7ccc(NC8CCC(=O)NC8=O)cc7)CC6)CC5)cc4)cc23)c1F` (stereo not shown) [Example A26, 5-[4-[[4-[4-[4-[4-[(2,6-Dioxopiperidin-3-yl)amino]phenyl]piperidin-1-yl]butanoyl]piperazin-1-yl]methyl]phenyl]-3-[3-[[ethyl(methyl)sulfamoyl]amino]-2,6-difluorobenzoyl]-1H-pyrrolo[2,3-b]pyridine; 2,2,2-trifluoroacetic acid]: the DC50 turned out to be 166 nM and the maximal response (Emax) amounted to 19%.

In the case of `CCN(C)S(=O)(=O)Nc1ccc(F)c(C(=O)c2c[nH]c3ncc(-c4ccc(N5CCN(C(=O)CC6(O)CCN(c7ncc(NC8CCC(=O)NC8=O)cc7F)CC6)CC5)cc4)cc23)c1F` (stereo not shown) [Example 90, 5-[4-[4-[2-[1-[5-[(2,6-dioxo-3-piperidyl)amino]-3-fluoro-2-pyridyl]-4-hydroxy-4-piperidyl]acetyl]piperazin-1-yl]phenyl]-3-[3-[[ethyl(methyl)sulfamoyl]amino]-2,6-difluoro-benzoyl]-1H-pyrrolo[2,3-b]pyridine], the DC50 amounted to 2.13 nM and the Emax came to 7.44%.

With `CCN(C)S(=O)(=O)Nc1ccc(F)c(C(=O)c2c[nH]c3ncc(-c4cnc(N5CCN(C(=O)CN6CCC(c7ccc(NC8CCC(=O)NC8=O)cc7)CC6)CC5)nc4)cc23)c1F` (stereo not shown) [Example A10, 5-[2-[4-[2-[4-[4-[(2,6-Dioxopiperidin-3-yl)amino]phenyl]piperidin-1-yl]acetyl]piperazin-1-yl]pyrimidin-5-yl]-3-[3-[[ethyl(methyl)sulfamoyl]amino]-2,6-difluorobenzoyl]-1H-pyrrolo[2,3-b]pyridine], the 50% degradation concentration (DC50) is 3 nM and the maximum response (Emax) was found to be 8%.

On to `CCN(C)S(=O)(=O)Nc1ccc(F)c(C(=O)c2c[nH]c3ncc(-c4cc(F)c(N5CCN(C(=O)CN6CCC(c7ccc(NC8CCC(=O)NC8=O)cc7)CC6)CC5)c(F)c4)cc23)c1F` (stereo not shown) [Example 93, 5-[4-[4-[2-[4-[4-[(2,6-dioxo-3-piperidyl)amino]phenyl]-1-piperidyl]acetyl]piperazin-1-yl]-3,5-difluoro-phenyl]-3-[3-[[ethyl(methyl)sulfamoyl]amino]-2,6-difluoro-benzoyl]-1H-pyrrolo[2,3-b]pyridine], for which the DC50 is 23.8 nM and the Emax is 8.31%.

On to `CCN(C)S(=O)(=O)Nc1ccc(F)c(C(=O)c2c[nH]c3ncc(-c4cc(F)c(N5CCN(C(=O)CC6(O)CCN(c7ccc(NC8CCC(=O)NC8=O)cc7F)CC6)CC5)cc4F)cc23)c1F` (stereo not shown) [Example 221, 5-[4-[4-[2-[1-[4-[(2,6-dioxo-3-piperidyl)amino]-2-fluoro-phenyl]-4-hydroxy-4-piperidyl]acetyl]piperazin-1-yl]-2,5-difluoro-phenyl]-3-[3-[[ethyl(methyl)sulfamoyl]amino]-2,6-difluoro-benzoyl]-1H-pyrrolo[2,3-b]pyridine], for which half-maximal degradation (DC50) was put at 5.65 nM and the Emax was determined as 9.12%.

As for `CCN(C)S(=O)(=O)Nc1ccc(F)c(C(=O)c2c[nH]c3ncc(-c4cnc(N5CCN(C(=O)NC6CCN(c7ccc(NC8CCC(=O)NC8=O)cc7F)CC6)CC5)nc4)cc23)c1F` (stereo not shown) [Example 138, N-[1-[4-[(2,6-dioxo-3-piperidyl)amino]-2-fluoro-phenyl]-4-piperidyl]-4-[5-[3-[3-[[ethyl(methyl)sulfamoyl]amino]-2,6-difluoro-benzoyl]-1H-pyrrolo[2,3-b]pyridin-5-yl]pyrimidin-2-yl]piperazine-1-carboxamide], the DC50 amounted to 10.5 nM and the Emax is 7.71%.

In the case of `CCN(C)S(=O)(=O)Nc1ccc(F)c(C(=O)c2c[nH]c3ncc(-c4cnc(N5CC6(C5)CC(O)(C5CCN(c7ccc(NC8CCC(=O)NC8=O)cc7F)CC5)C6)nc4)cc23)c1F` (stereo not shown) [Example 196, 5-[2-[6-[1-[4-[(2,6-dioxo-3-piperidyl)amino]-2-fluoro-phenyl]-4-piperidyl]-6-hydroxy-2-azaspiro[3.3]heptan-2-yl]pyrimidin-5-yl]-3-[3-[[ethyl(methyl)sulfamoyl]amino]-2,6-difluoro-benzoyl]-1H-pyrrolo[2,3-b]pyridine], the DC50 is 1.14 nM and the Emax was 6.81%.

Regarding `CCN(C)S(=O)(=O)Nc1ccc(F)c(C(=O)c2c[nH]c3ncc(-c4ccc(N5CCN(C(=O)CN6Cc7ccc(NC8CCC(=O)NC8=O)cc7C6)CC5)nc4)cc23)c1F` (stereo not shown) [Example A37, 5-[6-[4-[2-[5-[(2,6-Dioxopiperidin-3-yl)amino]-1,3-dihydroisoindol-2-yl]acetyl]piperazin-1-yl]pyridin-3-yl]-3-[3-[[ethyl(methyl)sulfamoyl]amino]-2,6-difluorobenzoyl]-1H-pyrrolo[2,3-b]pyridine], the DC50 was found to be 14.6 nM and the maximal response (Emax) worked out at 20.6%.

For `CCN(C)S(=O)(=O)Nc1ccc(F)c(C(=O)c2c[nH]c3ncc(-c4cnc(N5CCc6c(CN7CCC(c8ccc(NC9CCC(=O)NC9=O)cc8)CC7)cccc6C5)nc4)cc23)c1F` (stereo not shown) [Example 150, 5-[[4-[4-[(2,6-dioxo-3-piperidyl)amino]phenyl]-1-piperidyl]methyl]-2-[5-[3-[3-[[ethyl(methyl)sulfamoyl]amino]-2,6-difluoro-benzoyl]-1H-pyrrolo[2,3-b]pyridin-5-yl]pyrimidin-2-yl]-3,4-dihydro-1H-isoquinoline], the DC50 came out at 32.8 nM and the Emax came to 13.3%.

For the molecule `CCN(C)S(=O)(=O)Nc1cccc(C(=O)c2c[nH]c3ncc(-c4ccc(N5CCN(C(=O)CC6(O)CCN(c7ccc(NC8CCC(=O)NC8=O)cc7F)CC6)CC5)cc4)cc23)c1F` (stereo not shown) [Example 119, 5-[4-[4-[2-[1-[4-[(2,6-dioxo-3-piperidyl)amino]-2-fluoro-phenyl]-4-hydroxy-4-piperidyl]acetyl]piperazin-1-yl]phenyl]-3-[3-[[ethyl(methyl)sulfamoyl]amino]-2-fluoro-benzoyl]-1H-pyrrolo[2,3-b]pyridine], it took 8.71 nM to reach half-maximal degradation (DC50) and the Emax was 10.5%.

For the molecule `CC(C)S(=O)(=O)Nc1ccc(F)c(C(=O)c2c[nH]c3ncc(-c4cnc(N5CCN(C(=O)CN6CCC(c7ccc8c(N9CCC(=O)NC9=O)nn(C)c8c7)CC6)CC5)nc4)cc23)c1F` [Example 10, N-[3-[5-[2-[4-[2-[4-[3-(2,4-dioxohexahydropyrimidin-1-yl)-1-methyl-indazol-6-yl]-1-piperidyl]acetyl]piperazin-1-yl]pyrimidin-5-yl]-1H-pyrrolo[2,3-b]pyridine-3-carbonyl]-2,4-difluoro-phenyl]propane-2-sulfonamide], the DC50 came out at 4.45 nM and the Emax was 8.46%.

Consider `CCN(C)S(=O)(=O)Nc1ccc(F)c(C(=O)c2c[nH]c3ncc(-c4cnc(N5CCN(C(=O)CN6CCC(n7cc(NC8CCC(=O)NC8=O)cn7)CC6)CC5)nc4)cc23)c1F` (stereo not shown) [Example A79, 5-[2-[4-[2-[4-[4-[(2,6-Dioxopiperidin-3-yl)amino]pyrazol-1-yl]piperidin-1-yl]acetyl]piperazin-1-yl]pyrimidin-5-yl]-3-[3-[[ethyl(methyl)sulfamoyl]amino]-2,6-difluorobenzoyl]-1H-pyrrolo[2,3-b]pyridine], for which half-maximal degradation (DC50) was put at 60 nM and the Emax worked out at 22%.

Take `CCN(C)S(=O)(=O)Nc1ccc(F)c(C(=O)c2c[nH]c3ncc(-c4cnc(N5CCN(C(=O)CC6CCN(c7c(F)cc(NC8CCC(=O)NC8=O)cc7F)CC6)CC5)nc4)cc23)c1F` (stereo not shown) [Example 45, 5-[2-[4-[2-[1-[4-[(2,6-dioxo-3-piperidyl)amino]-2,6-difluoro-phenyl]-4-piperidyl]acetyl]piperazin-1-yl]pyrimidin-5-yl]-3-[3-[[ethyl(methyl)sulfamoyl]amino]-2,6-difluoro-benzoyl]-1H-pyrrolo[2,3-b]pyridine]: half-maximal degradation (DC50) was put at 23.6 nM and the Emax was determined as 14.2%.

On to `CCN(C)S(=O)(=O)Nc1ccc(F)c(C(=O)c2c[nH]c3ncc(-c4ccc(N5CCN(C(=O)CN6CCN(c7ccc(NC8CCC(=O)NC8=O)cc7)CC6)CC5)nc4)cc23)c1F` (stereo not shown) [Example A11, 5-[6-[4-[2-[4-[4-[(2,6-Dioxopiperidin-3-yl)amino]phenyl]piperazin-1-yl]acetyl]piperazin-1-yl]pyridin-3-yl]-3-[3-[[ethyl(methyl)sulfamoyl]amino]-2,6-difluorobenzoyl]-1H-pyrrolo[2,3-b]pyridine], for which the DC50 amounted to 6.71 nM and the maximum response (Emax) was 11.6%.

On to `CCN(C)S(=O)(=O)Nc1ccc(F)c(C(=O)c2c[nH]c3ncc(-c4cnc(N5CCC(NC(=O)C6CCN(c7ccc(NC8CCC(=O)NC8=O)cc7F)CC6)CC5)nc4)cc23)c1F` (stereo not shown) [Example 136, 1-[4-[(2,6-dioxo-3-piperidyl)amino]-2-fluoro-phenyl]-N-[1-[5-[3-[3-[[ethyl(methyl)sulfamoyl]amino]-2,6-difluoro-benzoyl]-1H-pyrrolo[2,3-b]pyridin-5-yl]pyrimidin-2-yl]-4-piperidyl]piperidine-4-carboxamide], for which half-maximal degradation (DC50) was put at 3.26 nM and the maximum response (Emax) was 7.37%.

Consider `CCN(C)S(=O)(=O)Nc1ccc(F)c(C(=O)c2c[nH]c3ncc(-c4ccc(N5CCC(NC(=O)CN6CCC(c7ccc(NC8CCC(=O)NC8=O)cc7)CC6)CC5)nc4)cc23)c1F` (stereo not shown) [Example A66, 2-[4-[4-[(2,6-Dioxopiperidin-3-yl)amino]phenyl]piperidin-1-yl]-N-[1-[5-[3-[3-[[ethyl(methyl)sulfamoyl]amino]-2,6-difluorobenzoyl]-1H-pyrrolo[2,3-b]pyridin-5-yl]pyridin-2-yl]piperidin-4-yl]acetamide; formic acid], for which the DC50 is 17 nM and the Emax was 13%.

For the molecule `CCN(C)S(=O)(=O)Nc1ccc(F)c(C(=O)c2c[nH]c3ncc(-c4ccc(N5CCN(C(=O)CN6CCC(c7ccc(NC8CCC(=O)NC8=O)cc7)C(F)(F)C6)CC5)nc4)cc23)c1F` (stereo in doubt) [Example 77, 5-[6-[4-[2-[(4R)-4-[4-[(2,6-dioxo-3-piperidyl)amino]phenyl]-3,3-difluoro-1-piperidyl]acetyl]piperazin-1-yl]-3-pyridyl]-3-[3-[[ethyl(methyl)sulfamoyl]amino]-2,6-difluoro-benzoyl]-1H-pyrrolo[2,3-b]pyridine], half-maximal degradation (DC50) was put at 3.49 nM and the Emax came out at 9.19%.
